What was measured:
[1] = molecular target: T1, SspH2 (Salmonella typhimurium, UniProt D0ZPH9); assay: Intact LC-MS labelling dilution series; format: binding; details: dilution series 100–6.25 μM, 24 hours at 4 °C
T1 construct: Recombinant SspH1 (aa 161–700) and SspH2 (aa 166–783) were both characterised; His-tag (N, cleaved yes); made in house; host or cells: E. coli BL21
Procedure: Fig. 3 Validation of HTC hit compounds by intact MS. Labelling heatmaps of dilution series (100–6.25 μM) of compounds 4–10 with (A) WT SspH1 and (B) C492K SspH1. Labelling heatmaps of dilution series of (C) compound 6 and (D) compound 7 with bacterial and human ubiquitin binding proteins. Recombinant proteins were incubated at either 1.0 or 0.5 μM with 50 μM fragments for 24 hours at 4 °C, before fragment labelling was analysed by intact LC-MS. Bacterial proteins are shown in bold and human proteins in italic fonts. (E)–(H) Kinetics analyses: time courses (0–12 hours) of compound labelling (100–1.56 μM) of SspH1 and SspH2 (0.5 μM) for (E) SspH1 and compound 7, and (F) SspH2 and compound 6. Measurements were performed in technical triplicates. Labelling percentages were plotted against time in GraphPad Prism v.10, and curves fitted separately for each replicate using one-phase association, with constraints Y0 = 0 and plateau = highest labelling percentage. Graphs for SspH1 and compound 6, and SspH2 and compound 7 are shown in Fig. S4A and B. Rate constants (kobs, as given by Graphpad Prism calculated K values) were plotted against fragment concentration in triplicate for (G) SspH1 and (H) SspH2. Straight lines were fitted with constraint Yintercept = 0. For SspH2 kinetics, 100 μM kobs was outside the linear range. […]

[2] = molecular target: T2, IpaH9.8 (21–545) (Shigella flexneri, UniProt Q8VSC3); assay: Intact protein LC-MS covalent fragment labelling; format: binding; details: dilution series 100–6.25 μM, 24 hours at 4 °C
T2 construct: Recombinant IpaH9.8 (21–545) and SspH1 (161–700) were incubated at 0.5 μM; His-tag (N, cleaved yes); made in house; host or cells: E. coli BL21
T2 sequence (Q8VSC3 21-545): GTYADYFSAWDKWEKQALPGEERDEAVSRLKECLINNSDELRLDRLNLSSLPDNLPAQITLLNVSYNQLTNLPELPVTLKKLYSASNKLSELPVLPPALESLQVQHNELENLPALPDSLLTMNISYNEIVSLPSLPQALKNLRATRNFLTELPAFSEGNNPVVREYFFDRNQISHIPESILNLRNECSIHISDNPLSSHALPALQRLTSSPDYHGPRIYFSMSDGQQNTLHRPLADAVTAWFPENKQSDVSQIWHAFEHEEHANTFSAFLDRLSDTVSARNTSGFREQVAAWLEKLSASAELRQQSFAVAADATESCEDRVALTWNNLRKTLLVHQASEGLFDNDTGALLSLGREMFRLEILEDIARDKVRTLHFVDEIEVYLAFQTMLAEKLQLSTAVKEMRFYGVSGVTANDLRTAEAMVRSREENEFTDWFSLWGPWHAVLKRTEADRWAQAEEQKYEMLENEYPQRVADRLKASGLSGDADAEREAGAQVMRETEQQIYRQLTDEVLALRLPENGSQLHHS
Description: A diverse library of 227 compounds with chloroacetamide warheads, featuring a diversity of molecular weight (162–321 Da) and clog P (−1.4 to 3.4) (Table S1), were screened against Salmonella and Shigella NEL E3 ligases using our intact protein liquid chromatography mass spectrometry (LC-MS) platform as previously described.[39,40] Briefly, recombinant SspH1 (161–700[30]) and IpaH9.8 (21–545[29]) (Fig. […] 1C). Raw counts were deconvoluted and the labelling percentage calculated by detection and comparison of protein and protein-fragment molecular weights.
Fig. 1 Intact protein LCMS screening of covalent fragment library against NEL proteins. (A) Cartoon depicting conserved NEL E3 ligase domains; (B) overlaid structures of SspH1 (blue, PDB 9H6W[30]) and IpaH9.8 (green, PDB 6LOL[29]) aligned on NEL domain; (C) workflow of covalent fragment screening using intact LC-MS; (D) fragment labelling percentages for SspH1 and IpaH9.8 with fragments 1–3 highlighted. […]
To mitigate the risk of selecting compounds which indiscriminately recognise ubiquitin binding proteins, we next performed preliminary selectivity studies with compounds 6 and 7 against human ubiquitin system proteins. […] In parallel, we tested the compounds against related NEL E3 ligases SspH2 and IpaH9.8. […]

[3] = test system: HEK293T cells; assay: Cell toxicity observed during in-cell treatment; format: cell-based, human; details: 50 μM, four hours
Procedure: We next interrogated whether compounds 6 or 7 could engage SspH1 or SspH2 in live human cells. To simplify experimental setup, we opted for NEL overexpression in mammalian cells, coupled with chemoproteomics, over a Salmonella infection-based assay. SspH1 or SspH2 were transiently expressed in HEK293T cells (Fig. S6), and cells treated with 50 μM of either compound 6 or 7 for four hours. […] Following cell lysis, we again utilized an IA-DTB chemoproteomics workflow to assess cysteine engagement.[52] Peptides engaging with compound 6 were identified with an average log2 CR ≤ −1 and P-value ≤0.05 when compared to DMSO controls (Fig. 5C and D). […] However, none of these included catalytic cysteines-containing peptides of HECT or RBR E3 ligases, nor of DUBs. Therefore, compound 6 provides a useful starting point for medicinal chemistry campaigns to design potent and specific tool compounds for SspH1 and SspH2.
All cells were grown in DMEM media (Gibco, 41966-029) supplemented with FBS (ThermoFisher, A5256701) and Pen/Strep (Gibco, 15140-122) at 37 °C with 5% CO2. SspH1 (aa 1–700) and SspH2 (aa 1–786) genes were cloned separately into […] plasmids. HEK293T cells were seeded in 6-well plates at a density of 2 × 10^5 cells per well. […] Protein concentrations were measured using a Rapid BCA Gold Protein Assay Kit (Thermo Scientific, A53226) and diluted to 1 mg mL^−1 with lysis buffer. […]

T1 sequence (D0ZPH9 166-783): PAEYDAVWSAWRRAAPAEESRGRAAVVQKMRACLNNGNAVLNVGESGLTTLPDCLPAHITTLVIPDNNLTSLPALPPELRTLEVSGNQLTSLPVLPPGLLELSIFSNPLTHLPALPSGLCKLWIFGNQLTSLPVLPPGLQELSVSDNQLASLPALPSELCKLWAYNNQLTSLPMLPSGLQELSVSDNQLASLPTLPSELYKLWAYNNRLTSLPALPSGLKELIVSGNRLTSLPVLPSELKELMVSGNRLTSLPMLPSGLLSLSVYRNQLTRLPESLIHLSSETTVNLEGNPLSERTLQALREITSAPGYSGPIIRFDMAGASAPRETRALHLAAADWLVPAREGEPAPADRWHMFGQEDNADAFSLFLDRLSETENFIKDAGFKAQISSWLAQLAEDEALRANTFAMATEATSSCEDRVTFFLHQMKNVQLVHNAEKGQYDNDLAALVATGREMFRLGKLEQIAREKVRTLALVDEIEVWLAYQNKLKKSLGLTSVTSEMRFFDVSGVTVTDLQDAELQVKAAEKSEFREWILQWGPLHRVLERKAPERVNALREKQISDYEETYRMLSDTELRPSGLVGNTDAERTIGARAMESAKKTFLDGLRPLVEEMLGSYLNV

Compound	labelling of SspH2 [1]	labelling of IpaH9.8 [2]	cell toxicity [3]
Cc1cc(-c2nc3ccccc3n2C2CCN(C(=O)CCl)CC2)cc(C)c1O.Cl [compound 6]	very strong labelling	minimal labelling	no apparent cell toxicity
Cl.O=C(CCl)N1CCC(n2c(-c3ccc(C(F)(F)F)cc3)nc3ccccc32)CC1 [compound 7]	very strong labelling	minimal labelling	significant effects on cell attachment and potential toxicity
